PubChem BioAssay AID1918934 (Molecular Pharmacology Branch, DTP, NCI, 2023)

Tested on: 292921-168-R-J2-PDC complex spheroid viability
Assay: Anticancer human tumor 292921-168-R-J2-PDC patient-derived pancreatic carcinoma cell line growth inhibition
Details: for IC50: curve of first compound; for viability, T/C: stronger effect = lower value
Outline: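 Drug combinations with the LSD1 inhibitor iadademstat tested on tumor cells co-cultured as spheroids with endothelial cells and mesenchymal stem cells. Concentrations descended in half-log increments from clinical Cmax or 10 microM.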

[1] = second compound 0.1 µM, first compound 0.0316 µM
[2] = second compound 0.1 µM, first compound 0.1 µM
[3] = second compound 0.1 µM, first compound 0.316 µM
[4] = second compound 0.1 µM, first compound 1 µM
[5] = second compound 0.1 µM, first compound 3.16 µM
[6] = second compound 0.1 µM, first compound 10 µM
[7] = second compound 0.316 µM, first compound 0.0316 µM
[8] = second compound 0.316 µM, first compound 0.1 µM
[9] = second compound 0.316 µM, first compound 0.316 µM
[10] = second compound 0.316 µM, first compound 1 µM
[11] = second compound 0.316 µM, first compound 3.16 µM
[12] = second compound 0.316 µM, first compound 10 µM
[13] = second compound 1 µM, first compound 0.0316 µM
[14] = second compound 1 µM, first compound 0.1 µM
[15] = second compound 1 µM, first compound 0.316 µM
[16] = second compound 1 µM, first compound 1 µM
[17] = second compound 1 µM, first compound 3.16 µM
[18] = second compound 1 µM, first compound 10 µM
[19] = second compound 3.16 µM, first compound 0.0316 µM
[20] = second compound 3.16 µM, first compound 0.1 µM
[21] = second compound 3.16 µM, first compound 0.316 µM
[22] = second compound 3.16 µM, first compound 1 µM
[23] = second compound 3.16 µM, first compound 3.16 µM
[24] = second compound 3.16 µM, first compound 10 µM
[25] = second compound 10 µM, first compound 0.0316 µM
[26] = second compound 10 µM, first compound 0.1 µM
[27] = second compound 10 µM, first compound 0.316 µM
[28] = second compound 10 µM, first compound 1 µM
[29] = second compound 10 µM, first compound 3.16 µM
[30] = second compound 10 µM, first compound 10 µM
[31] = second compound 0.1 µM, first compound 0.00316 µM
[32] = second compound 0.1 µM, first compound 0.01 µM
[33] = second compound 0.316 µM, first compound 0.00316 µM
[34] = second compound 0.316 µM, first compound 0.01 µM
[35] = second compound 1 µM, first compound 0.00316 µM
[36] = second compound 1 µM, first compound 0.01 µM
[37] = second compound 3.16 µM, first compound 0.00316 µM
[38] = second compound 3.16 µM, first compound 0.01 µM
[39] = second compound 10 µM, first compound 0.00316 µM
[40] = second compound 10 µM, first compound 0.01 µM
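Also: seven day compound exposure before luminescent viability read.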
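For viability, T/C in this document: 100% = DMSO vehicle control wells.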

## CC(C)c1c(-c2ccccc2)nc2c(C#N)c[nH]n2c1=O + NC1CCC(NC2CC2c2ccccc2)CC1
Second compound 0.1 µM
  IC50: > 10 µM
Second compound 0.316 µM
  IC50: > 10 µM
Second compound 1 µM
  IC50: > 10 µM
Second compound 3.16 µM
  IC50: 9.72 µM
Second compound 10 µM
  IC50: 1.68 µM
[1]
  viability, T/C: 63.4%
[2]
  viability, T/C: 67.2%
[3]
  viability, T/C: 59.7%
[4]
  viability, T/C: 70%
[5]
  viability, T/C: 61.1%
[6]
  viability, T/C: 57%
[7]
  viability, T/C: 63.1%
[8]
  viability, T/C: 60.1%
[9]
  viability, T/C: 63.6%
[10]
  viability, T/C: 64.2%
[11]
  viability, T/C: 64.2%
[12]
  viability, T/C: 51.3%
[13]
  viability, T/C: 52.7%
[14]
  viability, T/C: 55.4%
[15]
  viability, T/C: 54.2%
[16]
  viability, T/C: 57.5%
[17]
  viability, T/C: 57.4%
[18]
  viability, T/C: 51.6%
[19]
  viability, T/C: 55.7%
[20]
  viability, T/C: 55.3%
[21]
  viability, T/C: 52.8%
[22]
  viability, T/C: 56.1%
[23]
  viability, T/C: 49%
[24]
  viability, T/C: 49.9%
[25]
  viability, T/C: 52.9%
[26]
  viability, T/C: 53.8%
[27]
  viability, T/C: 53.2%
[28]
  viability, T/C: 54.6%
[29]
  viability, T/C: 45.6%
[30]
  viability, T/C: 40%

## CC1COCCN1c1cc(-c2ccnn2C)c2ccnc(-c3ccn[nH]3)c2n1 (stereo not given) + NC1CCC(NC2CC2c2ccccc2)CC1
Second compound 0.1 µM
  IC50: < 0.00316 µM
Second compound 0.316 µM
  IC50: < 0.00316 µM
Second compound 1 µM
  IC50: < 0.00316 µM
Second compound 3.16 µM
  IC50: < 0.00316 µM
Second compound 10 µM
  IC50: < 0.00316 µM
[31]
  viability, T/C: 14.1%
[32]
  viability, T/C: 12.3%
[1]
  viability, T/C: 13%
[2]
  viability, T/C: 16.4%
[3]
  viability, T/C: 18.4%
[4]
  viability, T/C: 19.3%
[33]
  viability, T/C: 15.7%
[34]
  viability, T/C: 14.8%
[7]
  viability, T/C: 12%
[8]
  viability, T/C: 15.7%
[9]
  viability, T/C: 16.9%
[10]
  viability, T/C: 18.3%
[35]
  viability, T/C: 14.4%
[36]
  viability, T/C: 15.1%
[13]
  viability, T/C: 13.5%
[14]
  viability, T/C: 14.2%
[15]
  viability, T/C: 14.8%
[16]
  viability, T/C: 17.2%
[37]
  viability, T/C: 15.7%
[38]
  viability, T/C: 15.5%
[19]
  viability, T/C: 12.2%
[20]
  viability, T/C: 13.5%
[21]
  viability, T/C: 15.3%
[22]
  viability, T/C: 16%
[39]
  viability, T/C: 13.7%
[40]
  viability, T/C: 14%
[25]
  viability, T/C: 12.3%
[26]
  viability, T/C: 12.5%
[27]
  viability, T/C: 14.2%
[28]
  viability, T/C: 17.3%

## COc1ccc([C@@H](O)c2cc(-c3ncnc4cc(N5CCOCC5)ccc34)c(F)cc2Cl)nn1 + NC1CCC(NC2CC2c2ccccc2)CC1
Second compound 0.1 µM
  IC50: 0.205 µM
Second compound 0.316 µM
  IC50: 0.191 µM
Second compound 1 µM
  IC50: 0.102 µM
Second compound 3.16 µM
  IC50: 0.101 µM
Second compound 10 µM
  IC50: 0.035 µM
[1]
  viability, T/C: 61.8%
[2]
  viability, T/C: 61.3%
[3]
  viability, T/C: 42.7%
[4]
  viability, T/C: 30.4%
[5]
  viability, T/C: 19.9%
[6]
  viability, T/C: 11.7%
[7]
  viability, T/C: 61.1%
[8]
  viability, T/C: 57.7%
[9]
  viability, T/C: 44.4%
[10]
  viability, T/C: 26.2%
[11]
  viability, T/C: 17.1%
[12]
  viability, T/C: 11.8%
[13]
  viability, T/C: 59.9%
[14]
  viability, T/C: 50.4%
[15]
  viability, T/C: 38.1%
[16]
  viability, T/C: 24.9%
[17]
  viability, T/C: 18.4%
[18]
  viability, T/C: 11.2%
[19]
  viability, T/C: 50%
[20]
  viability, T/C: 53.7%
[21]
  viability, T/C: 40.4%
[22]
  viability, T/C: 27.1%
[23]
  viability, T/C: 16.4%
[24]
  viability, T/C: 10.7%
[25]
  viability, T/C: 48.6%
[26]
  viability, T/C: 50%
[27]
  viability, T/C: 36.2%
[28]
  viability, T/C: 28.2%
[29]
  viability, T/C: 18.1%
[30]
  viability, T/C: 11.6%

## O=C(C=Cn1cnc(-c2cc(C(F)(F)F)cc(C(F)(F)F)c2)n1)NNc1cnccn1 + NC1CCC(NC2CC2c2ccccc2)CC1
Second compound 0.1 µM
  IC50: 0.00543 µM
Second compound 0.316 µM
  IC50: 0.00867 µM
Second compound 1 µM
  IC50: 0.0106 µM
Second compound 3.16 µM
  IC50: 0.00677 µM
Second compound 10 µM
  IC50: 0.00592 µM
[31]
  viability, T/C: 52.7%
[32]
  viability, T/C: 47.4%
[1]
  viability, T/C: 25.9%
[2]
  viability, T/C: 13.2%
[3]
  viability, T/C: 6.69%
[4]
  viability, T/C: 6.34%
[33]
  viability, T/C: 54.7%
[34]
  viability, T/C: 50.4%
[7]
  viability, T/C: 27%
[8]
  viability, T/C: 13.6%
[9]
  viability, T/C: 8.09%
[10]
  viability, T/C: 7.2%
[35]
  viability, T/C: 56.7%
[36]
  viability, T/C: 52.1%
[13]
  viability, T/C: 29%
[14]
  viability, T/C: 13.8%
[15]
  viability, T/C: 9.01%
[16]
  viability, T/C: 7.09%
[37]
  viability, T/C: 53%
[38]
  viability, T/C: 48.5%
[19]
  viability, T/C: 29.9%
[20]
  viability, T/C: 12.9%
[21]
  viability, T/C: 8.57%
[22]
  viability, T/C: 8.41%
[39]
  viability, T/C: 53.2%
[40]
  viability, T/C: 47.8%
[25]
  viability, T/C: 30.2%
[26]
  viability, T/C: 16.3%
[27]
  viability, T/C: 9.15%
[28]
  viability, T/C: 8.4%
